# According to paper PMC3108484 (Frontiers in Pharmacology, 2011):
# Experiments:
# conscious guinea pigs = assay: Guinea pig colonic transit of carmine red dye; type: in vivo; settings: s.c., maximum effect already achieved
# healthy human subjects = assay: Human single ascending dose study, bowel movements; type: in vivo
# [1] = both, human, in vivo, 0.5 mg
# Human D1 = Human D1 (Homo sapiens, UniProt P21728); assay: Radioligand binding: Human D1
# Human D5 = Human D5 (Homo sapiens, UniProt P21918); assay: Radioligand binding: Human D5
# Human M1 = Human M1 (Homo sapiens, UniProt P11229); assay: Radioligand binding: Human M1
# Human M3 = Human M3 (Homo sapiens, UniProt P20309); assay: Radioligand binding: Human M3
# Human β1 = Human β1 (Homo sapiens, UniProt P08588); assay: Radioligand binding: Human β1
# Human β2 = Human β2 (Homo sapiens, UniProt P07550); assay: Radioligand binding: Human β2
# Human Y1 = Human Y1 (Homo sapiens, UniProt P25929); assay: Radioligand binding: Human Y1
# Human V2 = Human V2 (Homo sapiens, UniProt P30518); assay: Radioligand binding: Human V2
# Rat AMPA = assay: Radioligand binding: Rat AMPA; settings: [3H]-AMPA 8 nM
# Human COX1 = Human COX1 (Homo sapiens, UniProt P23219); assay: Enzyme inhibition: Human COX1
# Chain of Human COX1 (P23219 24-599): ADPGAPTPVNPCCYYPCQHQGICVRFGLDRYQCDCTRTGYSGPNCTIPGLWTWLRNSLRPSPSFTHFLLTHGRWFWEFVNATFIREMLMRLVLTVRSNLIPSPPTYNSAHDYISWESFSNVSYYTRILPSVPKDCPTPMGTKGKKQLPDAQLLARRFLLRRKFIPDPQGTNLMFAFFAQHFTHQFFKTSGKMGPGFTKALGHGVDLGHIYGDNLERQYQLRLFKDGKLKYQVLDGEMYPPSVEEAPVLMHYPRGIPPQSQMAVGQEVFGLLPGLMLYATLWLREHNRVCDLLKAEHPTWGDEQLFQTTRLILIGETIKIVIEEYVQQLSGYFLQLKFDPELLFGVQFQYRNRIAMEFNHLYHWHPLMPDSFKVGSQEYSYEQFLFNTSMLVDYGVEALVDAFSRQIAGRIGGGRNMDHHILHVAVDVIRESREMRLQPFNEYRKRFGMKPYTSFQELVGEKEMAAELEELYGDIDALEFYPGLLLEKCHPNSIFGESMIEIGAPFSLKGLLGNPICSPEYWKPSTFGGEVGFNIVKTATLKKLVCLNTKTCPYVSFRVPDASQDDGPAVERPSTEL
# Human COX2 = Human COX2 (Homo sapiens, UniProt P35354); assay: Enzyme inhibition: Human COX2
# Chain of Human COX2 (P35354 18-604): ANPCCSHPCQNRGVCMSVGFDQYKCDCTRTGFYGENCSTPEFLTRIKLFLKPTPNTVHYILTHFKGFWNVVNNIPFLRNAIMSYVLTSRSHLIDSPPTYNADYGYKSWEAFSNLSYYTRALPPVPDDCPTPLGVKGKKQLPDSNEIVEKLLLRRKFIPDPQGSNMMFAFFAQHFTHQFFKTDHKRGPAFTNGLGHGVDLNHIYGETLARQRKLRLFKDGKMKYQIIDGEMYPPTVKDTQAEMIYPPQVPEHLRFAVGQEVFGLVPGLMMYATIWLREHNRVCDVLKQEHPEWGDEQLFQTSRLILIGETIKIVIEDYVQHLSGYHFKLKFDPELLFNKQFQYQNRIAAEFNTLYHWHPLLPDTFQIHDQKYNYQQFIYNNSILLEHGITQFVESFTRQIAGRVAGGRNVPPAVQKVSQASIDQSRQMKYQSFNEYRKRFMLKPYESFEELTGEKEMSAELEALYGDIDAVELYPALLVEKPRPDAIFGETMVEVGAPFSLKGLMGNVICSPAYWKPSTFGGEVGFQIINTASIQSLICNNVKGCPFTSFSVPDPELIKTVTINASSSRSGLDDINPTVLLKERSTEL
# Human A2A = Human A2A (Homo sapiens, UniProt P29274); assay: Radioligand binding: Human A2A
# Chain of Human A2A (P29274 whole entry): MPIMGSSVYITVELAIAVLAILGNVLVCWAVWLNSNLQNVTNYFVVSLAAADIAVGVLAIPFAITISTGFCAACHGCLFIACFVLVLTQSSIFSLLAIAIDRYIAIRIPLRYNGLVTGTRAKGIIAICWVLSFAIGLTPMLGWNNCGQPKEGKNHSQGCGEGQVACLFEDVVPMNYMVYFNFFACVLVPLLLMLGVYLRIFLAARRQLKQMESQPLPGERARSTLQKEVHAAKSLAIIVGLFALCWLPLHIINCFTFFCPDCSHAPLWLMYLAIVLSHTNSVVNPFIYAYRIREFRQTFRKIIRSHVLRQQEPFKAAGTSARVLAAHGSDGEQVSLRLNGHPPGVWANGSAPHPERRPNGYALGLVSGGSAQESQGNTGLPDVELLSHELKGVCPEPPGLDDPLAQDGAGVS
# Human CB1 = Human CB1 (Homo sapiens, UniProt P21554); assay: Radioligand binding: Human CB1
# Human D4.4 = Human D4.4 (Homo sapiens, UniProt P21917); assay: Radioligand binding: Human D4.4
# Chain of Human D4.4 (P21917 whole entry): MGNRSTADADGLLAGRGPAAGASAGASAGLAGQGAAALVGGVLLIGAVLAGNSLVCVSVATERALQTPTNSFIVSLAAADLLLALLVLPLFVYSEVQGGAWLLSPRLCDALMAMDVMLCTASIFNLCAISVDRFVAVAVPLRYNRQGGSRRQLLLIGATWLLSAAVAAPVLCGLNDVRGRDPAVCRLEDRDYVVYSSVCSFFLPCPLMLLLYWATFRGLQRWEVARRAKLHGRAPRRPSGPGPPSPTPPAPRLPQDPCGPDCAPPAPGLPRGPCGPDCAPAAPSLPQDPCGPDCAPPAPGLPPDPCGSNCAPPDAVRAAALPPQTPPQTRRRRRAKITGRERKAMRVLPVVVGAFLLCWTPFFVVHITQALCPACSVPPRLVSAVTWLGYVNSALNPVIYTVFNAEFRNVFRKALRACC
# Human 5-HT6 = Human 5-HT6 (Homo sapiens, UniProt P50406); assay: Radioligand binding: Human 5-HT6
# Chain of Human 5-HT6 (P50406 whole entry): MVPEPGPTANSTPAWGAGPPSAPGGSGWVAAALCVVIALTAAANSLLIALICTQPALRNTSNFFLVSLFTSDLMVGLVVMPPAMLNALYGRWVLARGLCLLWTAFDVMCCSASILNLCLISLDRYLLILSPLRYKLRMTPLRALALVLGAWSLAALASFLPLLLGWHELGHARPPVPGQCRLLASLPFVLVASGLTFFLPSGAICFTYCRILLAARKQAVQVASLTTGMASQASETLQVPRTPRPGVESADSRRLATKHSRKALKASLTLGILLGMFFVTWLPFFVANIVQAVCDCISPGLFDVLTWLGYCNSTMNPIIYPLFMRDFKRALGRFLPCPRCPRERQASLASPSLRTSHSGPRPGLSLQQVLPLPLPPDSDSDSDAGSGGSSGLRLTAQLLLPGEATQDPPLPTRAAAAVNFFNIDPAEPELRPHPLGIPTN
# Human 5-HT7 = Human 5-HT7 (Homo sapiens, UniProt P34969); assay: Radioligand binding: Human 5-HT7
# Rat kainate = assay: Radioligand binding: Rat kainate; settings: [3H]-kainic acid 5 nM
# Human 5-HT2B = Human 5-HT2B (Homo sapiens, UniProt P41595); assay: Radioligand binding: Human 5-HT2B
# Human 5-HT2C = Human 5-HT2C (Homo sapiens, UniProt P28335); assay: Radioligand binding: Human 5-HT2C
# Human 5-HT3a = Human 5-HT3a (Homo sapiens, UniProt P46098); assay: Radioligand binding: Human 5-HT3a
# Guinea pig H2 = Guinea pig H2 (Cavia porcellus, UniProt P47747); assay: Radioligand binding: Guinea pig H2
# Chain of Guinea pig H2 (P47747 whole entry): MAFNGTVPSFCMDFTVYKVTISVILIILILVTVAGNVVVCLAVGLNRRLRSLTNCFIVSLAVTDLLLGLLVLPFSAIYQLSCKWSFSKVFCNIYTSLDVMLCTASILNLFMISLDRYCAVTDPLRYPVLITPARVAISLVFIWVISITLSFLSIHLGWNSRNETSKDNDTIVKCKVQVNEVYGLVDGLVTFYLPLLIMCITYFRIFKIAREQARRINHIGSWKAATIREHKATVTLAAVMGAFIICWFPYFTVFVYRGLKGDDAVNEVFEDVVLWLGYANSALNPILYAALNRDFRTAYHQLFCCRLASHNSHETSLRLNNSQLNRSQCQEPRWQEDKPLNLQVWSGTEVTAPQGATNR
# K+ATP channel = K+ATP channel (Rattus norvegicus, UniProt Q09429); assay: Radioligand binding: K+ATP channel; settings: read-out: % Inhibition of specific binding (1 μM)
# Human VPAC2 (VIP2) = Human VPAC2 (VIP2) (Homo sapiens, UniProt P41587); assay: Radioligand binding: Human VPAC2
# Chain of Human VPAC2 (VIP2) (P41587 24-438): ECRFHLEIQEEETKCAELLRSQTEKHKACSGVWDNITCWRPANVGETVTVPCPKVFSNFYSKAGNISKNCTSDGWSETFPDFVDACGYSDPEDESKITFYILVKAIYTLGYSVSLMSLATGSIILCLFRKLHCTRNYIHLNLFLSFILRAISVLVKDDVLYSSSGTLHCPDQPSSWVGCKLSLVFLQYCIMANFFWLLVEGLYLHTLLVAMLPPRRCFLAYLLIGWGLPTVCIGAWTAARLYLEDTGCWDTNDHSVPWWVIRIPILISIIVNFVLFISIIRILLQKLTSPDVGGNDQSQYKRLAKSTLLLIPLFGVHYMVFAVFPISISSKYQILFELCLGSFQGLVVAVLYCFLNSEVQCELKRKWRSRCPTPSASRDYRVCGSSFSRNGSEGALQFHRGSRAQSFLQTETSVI
# Rat adenylyl cyclase = assay: Enzyme inhibition: Rat adenylyl cyclase; settings: ATP 500 μM, TD-8954 1 μM
# Rat σ (non-selective) = assay: Radioligand binding: Rat σ; settings: [3H]-DTG 8 nM
# Rat α1 (non-selective) = assay: Radioligand binding: Rat α1; settings: [3H]-prazosin 0.25 nM
# Human μ = Human μ (Homo sapiens, UniProt P35372); assay: Radioligand binding: Human μ opiate receptor
# [2] = biological target: Human acetylcholinesterase (Homo sapiens, UniProt P22303); assay: Enzyme inhibition: Human acetylcholinesterase
# Chain of Human acetylcholinesterase (P22303 32-614): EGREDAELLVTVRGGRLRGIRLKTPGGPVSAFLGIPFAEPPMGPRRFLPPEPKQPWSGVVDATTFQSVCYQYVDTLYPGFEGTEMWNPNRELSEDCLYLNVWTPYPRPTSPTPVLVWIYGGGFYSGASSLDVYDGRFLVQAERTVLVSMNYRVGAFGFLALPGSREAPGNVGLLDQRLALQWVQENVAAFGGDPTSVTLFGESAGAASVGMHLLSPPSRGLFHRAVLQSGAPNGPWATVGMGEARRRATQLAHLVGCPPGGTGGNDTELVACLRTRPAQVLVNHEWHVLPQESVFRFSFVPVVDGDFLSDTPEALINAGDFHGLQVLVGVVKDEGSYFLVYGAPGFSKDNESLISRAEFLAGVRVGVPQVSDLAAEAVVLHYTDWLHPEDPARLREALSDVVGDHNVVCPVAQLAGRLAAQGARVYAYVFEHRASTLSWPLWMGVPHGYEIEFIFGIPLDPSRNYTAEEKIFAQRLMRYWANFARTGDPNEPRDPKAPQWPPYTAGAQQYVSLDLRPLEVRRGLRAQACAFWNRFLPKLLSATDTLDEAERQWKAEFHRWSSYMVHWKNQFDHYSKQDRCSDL
# rat Nav1.2 = assay: Whole cell voltage-clamp, neuronal sodium current; settings: 3 μM for 3 min, n = 3 cells
# Guinea pig κ kappa = Guinea pig κ kappa (Cavia porcellus, UniProt P41144); assay: Radioligand binding: Guinea pig κ opiate receptor
# Chain of Guinea pig κ kappa (P41144 whole entry): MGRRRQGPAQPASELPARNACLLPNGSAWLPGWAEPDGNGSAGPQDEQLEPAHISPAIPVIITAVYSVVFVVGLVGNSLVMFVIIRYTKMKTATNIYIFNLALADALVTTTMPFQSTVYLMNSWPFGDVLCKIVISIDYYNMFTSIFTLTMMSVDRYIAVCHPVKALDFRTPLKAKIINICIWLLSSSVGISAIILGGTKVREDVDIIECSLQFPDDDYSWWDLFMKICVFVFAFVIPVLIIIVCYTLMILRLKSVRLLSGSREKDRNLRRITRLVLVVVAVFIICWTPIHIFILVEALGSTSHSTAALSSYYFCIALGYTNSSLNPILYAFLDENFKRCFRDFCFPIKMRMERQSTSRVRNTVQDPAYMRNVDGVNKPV
# [3] = biological target: Rat Ca2+ channel (L, DHP site); assay: Radioligand binding: Rat Ca2+ channel; settings: [3H]-(+)PN 200-110 0.04 nM
# [4] = biological target: Rat Ca2+ channel (L, verapamil site); assay: Radioligand binding: Rat Ca2+ channel; settings: [3H]-(−)D 888 0.5 nM
# [5] = read-out: % Inhibition of specific binding (1 μM)
# [6] = read-out: % Inhibition of control (1 μM)
# Chain of Human D1 (P21728 whole entry): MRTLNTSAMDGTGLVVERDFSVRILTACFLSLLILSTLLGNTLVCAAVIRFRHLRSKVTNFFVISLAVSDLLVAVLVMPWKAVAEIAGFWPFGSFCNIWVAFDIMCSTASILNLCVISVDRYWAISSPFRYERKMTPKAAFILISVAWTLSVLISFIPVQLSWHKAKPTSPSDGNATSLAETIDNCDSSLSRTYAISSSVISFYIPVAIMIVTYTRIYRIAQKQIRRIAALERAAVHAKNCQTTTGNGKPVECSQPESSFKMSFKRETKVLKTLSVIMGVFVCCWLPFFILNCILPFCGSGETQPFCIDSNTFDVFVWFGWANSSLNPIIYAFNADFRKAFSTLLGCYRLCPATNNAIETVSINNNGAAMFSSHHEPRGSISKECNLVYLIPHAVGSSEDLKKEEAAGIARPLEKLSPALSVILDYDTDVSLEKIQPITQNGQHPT
smiles,measurement,setting,value
"COC(=O)N1CCC(CN2CCC(CNC(=O)c3cccc4[nH]c(C(C)C)nc34)CC2)CC1 [TD-8954, 4-(4-{[(2-isopropyl-1H-benzoimidazole-4-carbonyl)amino]methyl}-piperidin-1-ylmethyl)piperidine-1-carboxylic acid methyl ester]","lowest dose tested, significantly active on colonic transit",conscious guinea pigs,0.03 mg/kg
same,dose producing a maximal response,healthy human subjects; single oral dose,0.5 mg
same,lowest dose associated with a prokinetic effect,healthy human subjects; single oral dose,0.1 mg
same,time to first bowel movement compared to placebo,"healthy human subjects; single oral dose 0.1–20 mg, p < 0.05",statistically significant reduction
same,free plasma AUC0–24,[1],36.2 nM/h
same,free plasma Cmax,[1],3.4 nM/h
same,Ki,Human D1,> 1000 nM
same,inhibition at 1 µM,Human D1; [5],-2%
same,Ki,Human D5,> 1000 nM
same,Ki,Human M1,> 1000 nM
same,Ki,Human M3,> 10000 nM
same,Ki,Human β1,> 1000 nM
same,Ki,Human β2,> 1000 nM
same,Ki,Human Y1,> 1000 nM
same,Ki,Human V2,> 1000 nM
same,pKi,Rat AMPA,<6
same,% Inhibition of specific binding (1 μM),Rat AMPA; TD-8954 1 μM,−4%
same,IC50,Human COX1,> 1000 nM
same,inhibition at 1 µM,Human COX1; [6],2%
same,IC50,Human COX2,> 1000 nM
same,inhibition at 1 µM,Human COX2; [6],-36%
same,Ki,Human A2A,> 1000 nM
same,% Inhibition of specific binding (1 μM),"Human A2A; Human A2A, [3H]-CGS 21680 6 nM, TD-8954 1 μM",16%
same,Ki,Human CB1,> 1000 nM
same,Ki,Human D4.4,> 1000 nM
same,inhibition at 1 µM,Human D4.4; [5],6%
same,Ki,Human 5-HT6,> 1000 nM
same,Ki,Human 5-HT7,> 1000 nM
same,pKi,Rat kainate,<6
same,% Inhibition of specific binding (1 μM),Rat kainate; TD-8954 1 μM,−6%
same,Ki,Human 5-HT2B,> 1000 nM
same,Ki,Human 5-HT2C,> 1000 nM
same,Ki,Human 5-HT3a,> 100000 nM
same,Ki,Guinea pig H2,> 1000 nM
same,inhibition at 1 µM,Guinea pig H2; [5],4%
same,inhibition at 1 µM,K+ATP channel,5%
same,Ki,Human VPAC2 (VIP2),> 1000 nM
same,inhibition at 1 µM,Human VPAC2 (VIP2); [5],-19%
same,% Inhibition of control (1 μM),Rat adenylyl cyclase,5%
same,pKi,Rat σ (non-selective),<6
same,pKi,Rat α1 (non-selective),<6
same,% Inhibition of specific binding (1 μM),Rat α1 (non-selective); TD-8954 1 μM,−1%
same,Ki,Human μ,> 1000 nM
same,IC50,[2],> 1000 nM
same,inhibition at 1 µM,[2]; [6],2%
same,effect on magnitude of inward rat Nav1.2a sodium current,rat Nav1.2,no effect
same,Ki,Guinea pig κ kappa,> 1000 nM
same,inhibition at 1 µM,Guinea pig κ kappa; [5],22%
same,pKi,[3],<6
same,pKi,[4],<6
